From PubChem BioAssay AID2060610 (Molecular Pharmacology Branch, DTP, NCI, 2025)

Test system: 616215-338-R-J1-PDC complex spheroids, viability % test/control
Test: Anticancer human tumor 616215-338-R-J1-PDC patient-derived colon adenocarcinoma cell line growth inhibition [CLK]
Conditions: for IC50: curve of first compound; for viability, T/C: stronger effect = lower value
Text: A high-throughput screen of multi-cell type tumor spheroids was designed to identify active combinations of […] and targeted small molecules. Complex spheroids include a stromal component modeled by human endothelial cells (HUVEC) and fibroblasts modeled by human mesenchymal stem cells (MSCs). The concentration ranges selected for each drug and investigational agent were based upon clinically achievable concentrations if the clinical Cmax of the agent was known.
Compounds. The drugs and investigational agents: cirtuvivint (SM08502; NSC835563), CC-671 (NSC850746), vemurafenib (NSC761431), tapotoclax (NSC804041), sotorasib (NSC818433), adagrasib (NSC831453), MRTX-1133 (NSC836407), BAY2416964 (NSC825713), copanlisib (NSC816437), inavolisib (NSC800729), abemaciclib (NSC768073), osimertinib (NSC779217), entinostat (NSC756642), eltanexor (KPT-8602, NSC794443), venetoclax (NSC766270), ceralasertib (NSC777638), bortezomib (NSC756655), olaparib (NSC753686), talazoparib (NSC767125), alisertib (NSC759677), peposertib (NSC802822), gemcitabine (NSC613327), 5-fluorouracil (NSC19893), SN-38 (NSC673596), oxaliplatin (NSC266046), paclitaxel (NSC125973), and doxorubicin (NSC123127), were obtained from the National Cancer Institute (NCI) Developmental Therapeutics Program Chemical Repository. The FDA-approved anticancer drug set is available from the Developmental Therapeutics Program at https://dtp.cancer.gov/organization/dscb/obtaining/available plates.htm. […] The stock solutions were prepared in dimethyl sulfoxide (DMSO, Sigma-Aldrich, St. Louis, MO, cat. D2650), except for the platinum complexes which were prepared in saline (Quality Biological, Gaithersburg, MD, cat. 114-055-101), at 800-fold the tested concentration and stored at -70 degrees C prior to their use. All drugs and investigational agents were tested over a range starting from a high concentration at or near the clinical Cmax and decreasing in half-log increments. If the clinical Cmax for an agent had not been determined, the highest concentration tested was 10 microM.
Cell Culture. All cells were maintained in an incubator at 37 degrees C and 5% CO2 with 95% humidity. The PDC lines were cultured according to standard operating procedures established by the NCI PDMR. Briefly, all PDCs were thawed and cultured in Matrigel-coated flasks prepared with a working solution of 1X Ham's F-12 nutrient mix, without supplementation (Invitrogen, Waltham, MA, cat. 11765054), 100 U/mL penicillin-streptomycin (Invitrogen, cat. 15140122), and 2.5% Matrigel (Corning Inc., Corning, NY, cat. 354248) for the first three passages. The 947758-054-R-J2-PDC line was cultured in 6B/Colon 1A media, which includes advanced DMEM/F-12 (Thermo Fisher Scientific, cat. 12634028), 10 mM HEPES (Thermo Fisher Scientific, cat. 15630080), 1X GlutaMAX supplement (Thermo Fisher Scientific, cat. 35050061), 0.1 mg/mL primocin (InvivoGen, cat. ant-pm-2), 10% defined fetal bovine serum, heat inactivated (HyClone Laboratories Inc., cat. SH30070.03HI), 1.25 mM N-Acetyl-L-cysteine (Sigma-Aldrich, cat. A9165), 10 mM nicotinamide (Sigma-Aldrich, cat. N0636), 1X B-27 supplement (Thermo Fisher Scientific, cat. 17504044), 1X N-2 supplement (Thermo Fisher Scientific, cat. 17502048), and 10 microM Y-27632 dihydrochloride (Tocris Bioscience, cat. 1254). The 876862-298-R-J1-PDC was cultured in 6E media, which includes all 6B/Colon 1A media components plus 50% L-WRN conditioned media (ATCC, cat. CRL-3276), 50 ng/mL recombinant human EGF recombinant protein (hEGF; Thermo Fisher Scientific, cat. PHG0311), 10 ng/mL recombinant human fibroblast growth factor 10 (hGFG-10; PeproTech, cat. 100-26), 1 ng/mL recombinant human fibroblast growth factor 2 (hFGF-2; PeproTech, cat. 100-18B), and 1 µM prostaglandin E2 (PGE2; Tocris, cat. 2296). The 227483-062-R1-J1-PDC line was cultured in Panc media, containing all 6E components except hFGF-2, with the addition of 500 nM SB-431542 (Selleckchem, cat. S1067) and 10 nM gastrin (Tocris, cat. 3006). […]

[1] = second compound 0.0316 µM, first compound 0.0316 µM
[2] = second compound 0.0316 µM, first compound 0.1 µM
[3] = second compound 0.0316 µM, first compound 0.316 µM
[4] = second compound 0.0316 µM, first compound 1 µM
[5] = second compound 0.0316 µM, first compound 3.16 µM
[6] = second compound 0.0316 µM, first compound 10 µM
[7] = second compound 0.1 µM, first compound 0.0316 µM
[8] = second compound 0.1 µM, first compound 0.1 µM
[9] = second compound 0.1 µM, first compound 0.316 µM
[10] = second compound 0.1 µM, first compound 1 µM
[11] = second compound 0.1 µM, first compound 3.16 µM
[12] = second compound 0.1 µM, first compound 10 µM
[13] = second compound 0.316 µM, first compound 0.0316 µM
[14] = second compound 0.316 µM, first compound 0.1 µM
[15] = second compound 0.316 µM, first compound 0.316 µM
[16] = second compound 0.316 µM, first compound 1 µM
[17] = second compound 0.316 µM, first compound 3.16 µM
[18] = second compound 0.316 µM, first compound 10 µM
[19] = second compound 1 µM, first compound 0.0316 µM
[20] = second compound 1 µM, first compound 0.1 µM
[21] = second compound 1 µM, first compound 0.316 µM
[22] = second compound 1 µM, first compound 1 µM
[23] = second compound 1 µM, first compound 3.16 µM
[24] = second compound 1 µM, first compound 10 µM
[25] = second compound 3.16 µM, first compound 0.0316 µM
[26] = second compound 3.16 µM, first compound 0.1 µM
[27] = second compound 3.16 µM, first compound 0.316 µM
[28] = second compound 3.16 µM, first compound 1 µM
[29] = second compound 3.16 µM, first compound 3.16 µM
[30] = second compound 3.16 µM, first compound 10 µM
[31] = second compound 10 µM, first compound 0.0316 µM
[32] = second compound 10 µM, first compound 0.1 µM
[33] = second compound 10 µM, first compound 0.316 µM
[34] = second compound 10 µM, first compound 1 µM
[35] = second compound 10 µM, first compound 3.16 µM
[36] = second compound 10 µM, first compound 10 µM
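Further: spheroids exposed to agents for 7 days.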
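Wherever viability, T/C is given: 100% = DMSO vehicle wells.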

## CCCS(=O)(=O)Nc1ccc(F)c(C(=O)c2c[nH]c3ncc(-c4ccc(Cl)cc4)cc23)c1F + CN1CCN(c2cc(C(=O)Nc3cc4cc(-c5cnn(C)c5)ccc4cn3)ccn2)CC1
Second compound 0.0316 µM
  IC50: 1510 nM
Second compound 0.1 µM
  IC50: 1690 nM
Second compound 0.316 µM
  IC50: < 31.6 nM
Second compound 1 µM
  IC50: < 31.6 nM
Second compound 3.16 µM
  IC50: < 31.6 nM
Second compound 10 µM
  IC50: < 31.6 nM
[1]
  viability, T/C: 21.5%
[2]
  viability, T/C: 34.8%
[3]
  viability, T/C: 99.9%
[4]
  viability, T/C: 98.2%
[5]
  viability, T/C: 25.5%
[6]
  viability, T/C: 0.01%
[7]
  viability, T/C: 24.7%
[8]
  viability, T/C: 36.4%
[9]
  viability, T/C: 105%
[10]
  viability, T/C: 105%
[11]
  viability, T/C: 28.9%
[12]
  viability, T/C: 0.01%
[13]
  viability, T/C: 10.4%
[14]
  viability, T/C: 12.8%
[15]
  viability, T/C: 38.1%
[16]
  viability, T/C: 29.9%
[17]
  viability, T/C: 21%
[18]
  viability, T/C: 0%
[19]
  viability, T/C: 0.01%
[20]
  viability, T/C: 0.08%
[21]
  viability, T/C: 0.17%
[22]
  viability, T/C: 1.99%
[23]
  viability, T/C: 0.6%
[24]
  viability, T/C: 0.01%
[25]
  viability, T/C: 0.01%
[26]
  viability, T/C: 0.06%
[27]
  viability, T/C: 0.14%
[28]
  viability, T/C: 0.13%
[29]
  viability, T/C: 0.08%
[30]
  viability, T/C: 0%
[31]
  viability, T/C: 0.03%
[32]
  viability, T/C: 0.07%
[33]
  viability, T/C: 0.17%
[34]
  viability, T/C: 0.19%
[35]
  viability, T/C: 0.25%
[36]
  viability, T/C: 0%

## COC1C=CCC(C)C(C)S(=O)(=O)NC(=O)c2ccc3c(c2)N(CC2CCC21)CC1(CCCc2cc(Cl)ccc21)CO3 (centres undefined) + CN1CCN(c2cc(C(=O)Nc3cc4cc(-c5cnn(C)c5)ccc4cn3)ccn2)CC1
Second compound 0.0316 µM
  IC50: 2360 nM
Second compound 0.1 µM
  IC50: 2870 nM
Second compound 0.316 µM
  IC50: < 31.6 nM
Second compound 1 µM
  IC50: < 31.6 nM
Second compound 3.16 µM
  IC50: < 31.6 nM
Second compound 10 µM
  IC50: < 31.6 nM
[1]
  viability, T/C: 45.7%
[2]
  viability, T/C: 32.5%
[3]
  viability, T/C: 111%
[4]
  viability, T/C: 106%
[5]
  viability, T/C: 41.9%
[6]
  viability, T/C: 0.01%
[7]
  viability, T/C: 41.4%
[8]
  viability, T/C: 44.4%
[9]
  viability, T/C: 122%
[10]
  viability, T/C: 116%
[11]
  viability, T/C: 47.2%
[12]
  viability, T/C: 0.01%
[13]
  viability, T/C: 9.08%
[14]
  viability, T/C: 9.53%
[15]
  viability, T/C: 21.3%
[16]
  viability, T/C: 28.6%
[17]
  viability, T/C: 20%
[18]
  viability, T/C: 0.01%
[19]
  viability, T/C: 0.68%
[20]
  viability, T/C: 0.08%
[21]
  viability, T/C: 0.17%
[22]
  viability, T/C: 0.14%
[23]
  viability, T/C: 0.94%
[24]
  viability, T/C: 0.01%
[25]
  viability, T/C: 0.04%
[26]
  viability, T/C: 0.07%
[27]
  viability, T/C: 0.18%
[28]
  viability, T/C: 0.16%
[29]
  viability, T/C: 0.18%
[30]
  viability, T/C: 0.01%
[31]
  viability, T/C: 0.08%
[32]
  viability, T/C: 0.09%
[33]
  viability, T/C: 0.24%
[34]
  viability, T/C: 0.27%
[35]
  viability, T/C: 0.33%
[36]
  viability, T/C: 0.01%
